In ChEMBL document CHEMBL5584313, “Design and Synthesis of 7-Oxabicyclo[2.2.1]heptane-2,3-dicarboxylic Acid Derivatives as PP5 Inhibitors To Reverse Temozolomide Resistance in Glioblastoma Multiforme” (J Med Chem, 2024):
The source made the active and inactive calls. The calls are words filed in the database; no cut-off is given here.

How the values were obtained:
[1] = Aqueous stability of compound assessed as compound remaining measured at 240 mins by HPLC assay; type: physicochemical; settings: aqueous solution, read-out: Stability
U-87 MG [2] = assay: Induction of apoptosis in human U-87 MG cells assessed as S phase cells at 25 uM incubated for 24 hrs by propidium iodide staining based flow cytometry analysis (reference value: 29.4%); type: functional, U-87MG ATCC
U-87 MG [3] = assay: Induction of apoptosis in human U-87 MG cells assessed as S phase cells at 25 uM incubated for 24 hrs in presence of TMZ by propidium iodide staining based flow cytometry analysis (reference value: 29.4%); type: functional, U-87MG ATCC
U-87 MG [4] = assay: Induction of apoptosis in human U-87 MG cells assessed as G0/G1 phase cells at 25 uM incubated for 24 hrs in presence of TMZ by propidium iodide staining based flow cytometry analysis (reference value: 58.8%); type: functional, U-87MG ATCC
U-87 MG [5] = assay: Induction of apoptosis in human U-87 MG cells assessed as G0/G1 phase cells at 25 uM incubated for 24 hrs by propidium iodide staining based flow cytometry analysis (reference value: 58.8%); type: functional, U-87MG ATCC
U-87 MG [6] = assay: Induction of apoptosis in human U-87 MG cells assessed as G2/M phase cells at 25 uM incubated for 24 hrs by propidium iodide staining based flow cytometry analysis (reference value: 11.9%); type: functional, U-87MG ATCC
U-87 MG [7] = assay: Antitumor activity against human U-87 MG cells xenografted in BALB/c nude mouse assessed as tumor growth retardation at 40 mg/kg, po administered every other day for 18 days; type: functional, organism-based; settings: U-87MG ATCC, time 18.0 day
U-87 MG [8] = assay: Cytotoxicity against human U-87 MG cells incubated for 48 hrs by CCK8 assay; type: functional, cell-based, U-87MG ATCC
U-87 MG [9] = assay: Induction of apoptosis in human U-87 MG cells assessed as G2/M phase cells at 25 uM incubated for 24 hrs in presence of TMZ by propidium iodide staining based flow cytometry analysis (reference value: 11.9%); type: functional, U-87MG ATCC
[10] = Inhibition of PP2A (unknown origin)

Compound	remaining at 4 h [1] [%]	IC50 [10] [nM]	other results
O=C(O)[C@@H]1[C@H](C(=O)N2CCC2)[C@H]2CC[C@@H]1O2	33.8		
Cn1nnc2c(C(N)=O)ncn2c1=O [TEMOZOLOMIDE]			Activity (U-87 MG [2]): 31.5%; Activity (U-87 MG [3]): 69.6%; Activity (U-87 MG [4]): 37.7%; Activity (U-87 MG [5]): 54.5%; Activity (U-87 MG [6]): 13.5%; Activity (U-87 MG [7]): Active; IC50 (U-87 MG [8]): > 200000 nM; Activity (U-87 MG [9]): 7.4%
C=C1[C@@H](O)[C@@H]2O[C@]3(CC[C@H](/C=C/[C@@H](C)[C@@H]4CC(C)=C[C@@]5(O[C@H](C[C@@](C)(O)C(=O)O)CC[C@H]5O)O4)O3)CC[C@H]2O[C@@H]1[C@@H](O)C[C@H](C)[C@H]1O[C@@]2(CCCCO2)CC[C@H]1C [OKADAIC ACID]		0.1	
O=C1OC(=O)C2C3CCC(O3)C12 (stereo unspecified)		3000	
C[C@@]12C(=O)OC(=O)[C@]1(C)[C@H]1CC[C@@H]2O1 [CANTHARIDIN]		160	
O=C(NC1CCCCC1)[C@@H]1[C@H](C(=O)O)[C@H]2CC[C@@H]1O2	73.2		

More lines, main results first:

remaining at 4 h [1] [%]	Compound	IC50 [10] [nM]	other results
71.8	CC1c2ccccc2CN1C(=O)[C@@H]1[C@H](C(=O)O)[C@H]2CC[C@@H]1O2 (stereo partly specified)		
74.5	O=C(Nc1ccccc1)[C@@H]1[C@H](C(=O)O)[C@H]2CC[C@@H]1O2		
10.2	O=C(NC1CCCC1)[C@@H]1[C@H](C(=O)O)[C@H]2CC[C@@H]1O2		
